Results taken from ChEMBL document CHEMBL1157539, “Thousands of chemical starting points for antimalarial lead identification” (Nature, 2010).
Counter-ions that a name gives are not always drawn.

Each compound was assayed on Plasmodium falciparum (assay: GSK_TCMDC: Inhibition of Plasmodium falciparum 3D7 in whole erythrocytes, using parasite LDH activity as an index of growth.). Conditions: not given.
Type: functional, organism-based
`C=C[C@H]1CN2CC[C@H]1C[C@H]2[C@H](O)c1ccnc2ccc(OC)cc12` [QUININE HYDROCHLORIDE] showed an XC50 of 95.2 nM.

Same assay, conditions: Plasmodium falciparum, 3D7
In the case of `COc1ccc2nccc(N3CCCN(CCNCc4ccc5c(n4)NC(=O)CS5)CC3)c2n1`, the XC50 is reported as 155 nM.
Compound `CN1CCN(Cc2ccc(-c3ccc4c(Nc5cc(O)c(Cl)cc5F)ccnc4c3)o2)CC1` has an XC50 of 110 nM.
With `O=C(Nc1cccc(-c2cccc(-c3nc4cc(F)ccc4[nH]3)c2)c1)c1ccncc1` the XC50 was 514 nM.
`CC(=O)c1cc(N2CCCC2)ccc1N` was tested, and the XC50 was 15.5 nM.
`O=C(N[C@@H](Cc1cc(F)cc(F)c1)[C@H](O)CNCc1cccc(C(F)(F)F)c1)c1cc(C2CCCC2)cc(N2CCCC2=O)c1` gave an XC50 of 803 nM.
`Cc1cc(C)cc(N2C(N)=NC(N)=NC2(C)C)c1` gave an XC50 of 42 nM.
`O=C(NCCc1cccc(Cl)c1Cl)c1cnc(N2CCN(c3ccncc3)CC2)c(Cl)c1` was tested, and the XC50 was 702 nM.
Compound `Cc1cc(OCCCn2ccnc2)ccc1-c1csc(/N=C(\N)NCc2ccccc2)n1` has an XC50 of 878 nM.
Work on `CCC[C@@H]([C@@H](CC1CCCCC1)C(=O)N[C@H](C(=O)Nc1ccccn1)[C@H](C)CC)N(O)C=O` yielded an XC50 of 533 nM.
For `COc1ccccc1C1CCN(C2CCC(NC(=O)c3cc4cc(C(C)C)ccc4[nH]3)CC2)CC1` (centres undefined), the XC50 was 850 nM.
Compound `COc1cc2c(cc1OC)C(C(=O)Nc1cc(OC)c(OC)c(OC)c1)C(c1ccc(SC)cc1)N(C)C2=O` (centres undefined) has an XC50 of 986 nM.
`Cc1cccc2nc(-c3ccc(-c4cccc(CNCCCN5CCCC5=O)c4)s3)[nH]c12` gave an XC50 of 590 nM.
Compound `Cc1cc2nc(-c3ccc(OCC(=O)NCc4ccc(C(C)(C)C)cc4)cc3)[nH]c2cc1C` has an XC50 of 1060 nM.
Work on `Nc1cc(-c2ccc(-c3cccs3)s2)nc2ccccc12` yielded an XC50 of 598 nM.
`O=C(/C=C/c1ccc(C(F)(F)F)cc1)NCCCCCN1CCCN(C(=O)Nc2ccc(Cl)cc2)CC1` showed an XC50 of 869 nM.
`Cc1cccc2nc(-c3ccc(-c4ccc(NC(=O)Nc5ccsc5)cc4)cc3)[nH]c12` gave an XC50 of 171 nM.
`Cc1cc(N2CCCC2)nc(Nc2ccc(NC(=O)C(C)(C)C)cc2)n1` showed an XC50 of 1070 nM.
`CCCC(=O)NC(c1ccc(C)cc1)c1ccc2cccnc2c1O` (centres undefined) gave an XC50 of 957 nM.
For `COc1ccc(CNC(=O)NC2CCN(c3ccnc(Nc4cc(OC)c(OC)c(OC)c4)n3)C2)cc1` (centres undefined), the XC50 was 946 nM.
`CCN(CC)CCCCOc1ccc2c(c1)C(=O)c1cc(OCCCCN(CC)CC)ccc1-2` was tested, and the XC50 was 759 nM.
In the case of `CCC(=Cc1cccc([N+](=O)[O-])c1)C(=O)NCC1CCN(c2nc3cc(OC)c(OC)cc3c(=N)[nH]2)CC1`, the XC50 is reported as 236 nM.
For `O=C(Nc1ccc(F)c(C(F)(F)F)c1)N[C@H]1CCN(CCCCCNC(=O)C2CC2c2ccc(Cl)c(Cl)c2)C1` (some centres undefined), the XC50 was 157 nM.
`CC[C@H]1CN2CC[C@@H]1C[C@H]2[C@H](O)c1cc(-c2cccnc2)nc2ccc(OC)cc12` was tested, and the XC50 was 37.9 nM.
`CN(C)CCOc1ccc(NC(=O)NC(C)(C)c2nc(-c3ccc(Cl)c(O)c3)c(-c3ccncc3)[nH]2)cc1` was tested, and the XC50 was 113 nM.
`CCc1cn2c3c(cc(C(=O)N[C@@H](Cc4ccccc4)[C@H](O)CNC4CC4)cc13)N(CC)S(=O)(=O)CC2` was tested, and the XC50 was 112 nM.
`COc1cc(NC2=C(c3ccccc3)C(=O)c3ccccc32)ccn1` gave an XC50 of 359 nM.
`O=C(Nc1ccc(-c2cccc(-c3nc4cc(C(F)(F)F)ccc4[nH]3)c2)cc1)c1ccncc1` gave an XC50 of 664 nM.
In the case of `CN(C)CCNCc1cccc(-c2cccc(-c3nc4ccccc4[nH]3)c2)c1`, the XC50 is reported as 766 nM.
`Cc1cc(C=C(P(=O)(OC(C)C)OC(C)C)P(=O)(OC(C)C)OC(C)C)c2ccccc2c1O` gave an XC50 of 1080 nM.
For `COc1cc(C(=O)N2CCOC(CCN3CCC(Cc4ccc(F)cc4)CC3)(c3ccc(Cl)c(Cl)c3)C2)cc(OC)c1OC` (centres undefined), the XC50 was 902 nM.
`CN1CCCN(Cc2ccc(-c3cccc(NC(=O)c4ccc(Cl)cc4)c3)cc2)CC1` was tested, and the XC50 was 610 nM.
Compound `CS(=O)(=O)CCN(CCS(C)(=O)=O)Cc1ccc(-c2ccc3ncnc(Nc4ccc(OCc5cccc(F)c5)c(Cl)c4)c3c2)o1` has an XC50 of 1020 nM.
In the case of `COc1ccccc1C1CCN(C2CCC(NC(=O)/C=C/c3cccc(Cl)c3F)CC2)CC1` (centres undefined), the XC50 is reported as 1290 nM.
For `COc1ccccc1N(C)CCNc1cc(C)nc(Nc2ccccc2)n1`, the XC50 was 1070 nM.
For `N#Cc1ccc(NC2(C(=O)N3CCN(c4cccc(Cl)c4)CC3)CC2)c2ccccc12`, the XC50 was 1150 nM.
`Cc1sc2ccc(Cl)cc2c1S(=O)(=O)Nc1ccc2nccc(N3CC(C)NC(C)C3)c2c1` (centres undefined) gave an XC50 of 114 nM.
`O=c1n(CC2CCCCC2)c2cc(Cl)cc(OCCNc3ccncc3)c2n1CC1CCCCC1` gave an XC50 of 593 nM.
For `Cc1cccc2nc(-c3ccc(-c4cccc(CNCC5CCCO5)c4)s3)[nH]c12` (centres undefined), the XC50 was 972 nM.
Work on `CCN(CC)CCCC(C)Nc1ccnc2ccc(OC)cc12` (centres undefined) yielded an XC50 of 822 nM.
Compound `Cc1cccc2nc(-c3cccc(-c4ccc(NC(=O)C(=O)c5cccn5C)cc4)c3)[nH]c12` has an XC50 of 375 nM.
`CCN(CC)C(=O)C1CCCN(C(=O)Nc2cc(C(F)(F)F)cc(C(F)(F)F)c2)C1` (centres undefined) gave an XC50 of 996 nM.
In the case of `N#Cc1ccc(Sc2nnc(-c3ccccc3Cl)n2CC2CCCCC2)cc1[N+](=O)[O-]`, the XC50 is reported as 1160 nM.
In the case of `CC(C)CNCc1ccc(-c2cccc(CNC3CCN(Cc4ccccc4)CC3)c2)cc1`, the XC50 is reported as 239 nM.
`O=C(C=Cc1ccc(Cl)c(Cl)c1)NCCCCCN1CCC(CCCNS(=O)(=O)c2ccc(F)cc2)CC1` showed an XC50 of 1020 nM.
For `CC(C)(C)c1ccc(S(=O)(=O)Nc2cc(Cl)ccc2Cn2ccc(N3CCNCC3)nc2=O)cc1`, the XC50 was 827 nM.
In the case of `CC(C)S(=O)(=O)N1CCN(Cc2ccc3c(c2)nc(NC(=O)c2ccsc2)n3C[C@H](O)c2ccccc2)CC1`, the XC50 is reported as 271 nM.
In the case of `CCCCCN1CCCC(CNS(=O)(=O)c2ccc(C(=O)Nc3ccc(C(F)(F)F)cc3)cc2)C1` (centres undefined), the XC50 is reported as 916 nM.
`Fc1ccc(Nc2ccnc3cc(-c4ccc(CN5CCOCC5)o4)ccc23)c(Cl)c1` gave an XC50 of 756 nM.
In the case of `COc1ccc(-c2cc(Nc3nc(-c4cccc(Cl)c4)nc4ccccc34)ccn2)cc1`, the XC50 is reported as 727 nM.
`COC(=O)c1cccc(CNCc2ccc(-c3cccc(-c4nc5ccccc5[nH]4)c3)cc2)c1` showed an XC50 of 261 nM.
For `COc1ccc(CCC(C)N2CC(N)C(c3cn(C)c4cnccc34)C2)cc1` (centres undefined), the XC50 was 1360 nM.
With `CC(Cc1ccc(NC(=O)CCNCc2ccccc2)cc1)NCCc1cccc(Cl)c1` (centres undefined) the XC50 was 147 nM.
Compound `CCCCOc1cc2ncc(C(=O)OCC)c(O)c2cc1OCCCC` has an XC50 of 201 nM.
For `CN(CCNCc1ccc(-c2cccc(-c3nc4ccccc4[nH]3)c2)cc1)S(C)(=O)=O`, the XC50 was 945 nM.
In the case of `CC(C)(C)CNc1noc(-c2sccc2Br)n1`, the XC50 is reported as 1120 nM.
Work on `COc1cc(C2CCN(CCCCNC(=O)c3ccc(NC(=O)c4ccc(Cl)c(Cl)c4)cc3)CC2)ccc1OC(C)C` yielded an XC50 of 316 nM.
In the case of `CCCN(CCC)C(=O)c1cc(-c2cccc(C)c2)nc2ccccc12`, the XC50 is reported as 1060 nM.
In the case of `O=C(/C=C/c1ccc(Cl)c(Cl)c1)NCCCCCCN1CCN(C(=O)Nc2ccc(Cl)c(C(F)(F)F)c2)CC1`, the XC50 is reported as 526 nM.
`CCOc1ccc(C(=O)N2CCOC(CCN3CCC(c4ccccc4)CC3)(c3ccc(Cl)c(Cl)c3)C2)cc1` (centres undefined) gave an XC50 of 854 nM.
`Nc1c(Cl)cc(C(O)CNCCCCCOCCc2ccc3occc3c2)cc1Cl` (centres undefined) gave an XC50 of 690 nM.
`COc1ccc(CCNCCCCCNCCc2ccc(Cl)cc2)cc1OC` showed an XC50 of 741 nM.
With `Cc1ccc2ccccc2c1CCCON1C(=N)N=C(N)NC1(C)C` the XC50 was 3.2 nM.
In the case of `CCOc1cc(C(=O)Nc2ccc3nc(N4CCCCC4)cc(C)c3c2)cc(OCC)c1OCC`, the XC50 is reported as 825 nM.
With `Cc1cccc2nc(-c3cccc(-c4cccc(NC(=O)Nc5ccsc5)c4)c3)[nH]c12` the XC50 was 170 nM.
`CC1(C)NC(N)=NC(=N)N1OCCSc1ccccc1` showed an XC50 of 3.2 nM.
Compound `Oc1ccc(CCCNc2nc(NCc3ccccc3-c3ccccc3)nc(NC3CCNCC3)n2)cc1` has an XC50 of 864 nM.
In the case of `CSCCCN1CCC(O)(c2ccc3oc(C(=O)Nc4ccc5sc(C)nc5c4)cc3c2)CC1`, the XC50 is reported as 1070 nM.
With `CC(C)(C)c1ccc(NC(=O)Nc2ccc(Cn3ncc(N4CCCNCC4)c(Cl)c3=O)cc2)cc1` the XC50 was 752 nM.
For `CC(C)C1=C[C@H]2C[C@]3(C4OCCO4)[C@@H]4CC[C@@H](C)[C@H]4C[C@@]2(C(=O)OCC2COCO2)[C@]13C(=O)OC(c1ccccc1)c1ccccc1` (some centres undefined), the XC50 was 855 nM.
Work on `Cc1cc(N2CCCC2)nc(Nc2ccc(NC(=O)c3ccco3)cc2)n1` yielded an XC50 of 842 nM.
`CCCc1cn2c3c(cc(C(=O)N[C@@H](Cc4ccccc4)[C@H](O)CNC4CCOCC4)cc13)N(CC)S(=O)(=O)CC2` showed an XC50 of 98.8 nM.
`CCN(CC)c1ccc(C(c2ccc(N(CC)CC)cc2)c2cccc([N+](=O)[O-])c2)cc1` gave an XC50 of 381 nM.
In the case of `CCCN1CCN(c2cc(NCC)c3c4c(onc24)-c2ccccc2C3=O)CC1`, the XC50 is reported as 1060 nM.
Compound `COc1ccc(CNc2ncc(-c3ccsc3)c(-c3nccs3)n2)cc1OC` has an XC50 of 89 nM.
`CCOC(=O)C1=C(C)NC2=C(C(=O)CCC2)C1c1cn(Cc2ccc(Cl)cc2Cl)nc1-c1ccccc1` (centres undefined) gave an XC50 of 625 nM.
Work on `O=C(NCc1cccc2ccccc12)C1CCCN(C(=O)c2ccc(O)c(-c3ccc(Cl)c(Cl)c3)c2)C1` (centres undefined) yielded an XC50 of 1030 nM.
Work on `COc1cc2c(c(Cl)c1OC)CCN(Cc1ccccc1)CC2c1ccc(C(N)=O)cc1` (centres undefined) yielded an XC50 of 848 nM.
In the case of `O=C(/C=C/c1ccc(Cl)c(Cl)c1)NCCCCCN1CC[C@H](NC(=O)c2ccc3c(c2)OCO3)C1`, the XC50 is reported as 942 nM.
`N=C(N)Nc1ccc(OCCCCCOc2ccc(NC(=N)N)c(Cl)c2)cc1Cl` gave an XC50 of 857 nM.
Compound `CNCCNCc1cccc(-c2cccc(-c3nc4cc(C(F)(F)F)ccc4[nH]3)c2)c1` has an XC50 of 203 nM.
`CCCCCCCCc1nc(C)c(Br)c(O)c1Br` gave an XC50 of 178 nM.
`O=C(Nc1ccsc1)Nc1cccc(-c2cccc(-c3nc4cc(C(F)(F)F)ccc4[nH]3)c2)c1` showed an XC50 of 150 nM.
With `CN1CCN(CC(=O)Nc2ccc(-c3ccc(-c4nc5cc(C(F)(F)F)ccc5[nH]4)s3)cc2)CC1` the XC50 was 569 nM.
`COc1ccccc1C1CC(c2ccc(C)cc2)=NN1C(=O)c1ccccc1` (centres undefined) gave an XC50 of 886 nM.
For `CCc1ccc(-c2nc3cc(NC(=O)c4ccc([N+](=O)[O-])o4)ccc3o2)cc1`, the XC50 was 250 nM.
`NCC1CCCN1Cc1cccc(-c2ccc(-c3nc4cc(C(F)(F)F)ccc4[nH]3)cc2)c1` (centres undefined) gave an XC50 of 778 nM.
Compound `CCOc1ccc(C(C)NC(=O)c2cc(Cl)ccc2OC)cc1OCC` (centres undefined) has an XC50 of 971 nM.
For `COc1ccc(OC)c2c1CC1NCC2c2c(OC)ccc(OC)c21` (centres undefined), the XC50 was 971 nM.
Work on `CC(=O)Nc1ncc(C(=O)Nc2cccc(-c3cccc(-c4nc5cc(C(F)(F)F)ccc5[nH]4)c3)c2)s1` yielded an XC50 of 185 nM.
With `CC(=O)OCCN1C(=O)c2ccc3c4c(ccc(c24)C1=O)C(=O)N(CCOC(C)=O)C3=O` the XC50 was 238 nM.
In the case of `C=C[C@H]1CN2CC[C@H]1C[C@H]2[C@H](O)c1ccnc2ccc(OC)cc12` [QUININE HYDROCHLORIDE], the XC50 is reported as 145 nM.
For `CCN(CC)CCN(Cc1ccc(-c2ccc(C(F)(F)F)cc2)cc1)C(=O)Cn1cc(Cc2cnn(C)c2)c(=O)n2nc(-c3ccccc3)cc12`, the XC50 was 730 nM.
Work on `COc1ccc(NC(=O)NC2CCN(c3ccnc4cc(Cl)ccc34)CC2)cc1` yielded an XC50 of 731 nM.
